Consider 15 molecules from publication PMC11435625, “In Vitro Hepatic Clearance Evaluations of Per- and Polyfluoroalkyl Substances (PFAS) across Multiple Structural Categories” (Toxics, 2024).

Each structure is given as a SMILES string.

The subject of one series is plasma protein. The note with it: cited from earlier work; for Mean fu: fraction unbound in plasma, input for IVIVE calculations.
Series [1] relates to pooled primary human hepatocyte suspensions. The experiment in a line: Hepatic clearance assay (substrate depletion, LC-MS). The note with it: in µL/min/10^6 cells; for CLint for HTTK: CLint value carried into HTTK/IVIVE; for in vitro CLint exp assay / Unadj Clint: pooled primary human hepatocyte suspensions; for Unadj Clint: unadjusted hepatic intrinsic clearance, Table S4. As to the method:
The rate of hepatic clearance was determined as previously described for a set of PFAS [11]. Analysis was conducted across two laboratories at the Division of Translational Toxicology (DTT) at the National Institute of Environmental Health Sciences (NIEHS) and the Center for Computational Toxicology and Exposure at the USEPA. The PFAS analyzed in each lab can be found in the Supplementary Materials.
The hepatic clearance assay was performed at both the DTT and EPA laboratories as described below. The pooled human hepatocyte suspensions used in this work were purchased commercially and meet the ethical and scientific standards described in the Human Ethics Rule (40 CFR 26). The suspensions were prepared from hepatocytes obtained from de-identified donors by a commercial vendor.
PFAS stock solutions prepared in DMSO were added to prewarmed William’s E medium to make a 2X working stock solution (2 µM). […] The working stock solutions were then transferred to a 96-well polypropylene plate and placed in an incubator at 37 °C with 5% carbon dioxide prior to adding cells. Cryopreserved pooled primary human hepatocyte suspensions (50-donor pool, mixed gender; BioIVT; Westbury, NY, USA) were thawed and transferred to vials containing hepatocyte thawing medium. After centrifuging for 5–10 min at 100× g, thawing medium was removed, being careful not to disturb the cell pellet. The primary human hepatocytes were then resuspended in pre-warmed complete Williams E medium to achieve a cell density of ~1.0 × 10^6 viable cells/mL as determined by Trypan Blue exclusion. Cells were then added to the 96-well incubation plates containing PFAS to achieve a final density of ~0.5 × 10^6 viable cells/mL and a 1 μM assay concentration (Ctest), then placed in incubator on a shaker at 300 rpm. Triplicate samples were removed from the incubator at time points ranging from 0 to 240 min and quenched with a total crash in 2–3 volumes of ice-cold acetonitrile. Samples were spun at 4000× g for 20 min, and supernatants were transferred to new tubes and stored at <−70 °C until analysis. Media-only (no cell) and/or heat-inactivated hepatocytes were included as negative controls for each chemical to evaluate and estimate chemical loss due to nonmetabolic processes (e.g., hydrolysis). Phenacetin was included in all runs as an assay reference compound; EPA also included propranolol as an additional reference compound.
Assay samples were diluted in mobile phase and analyzed using a Thermo Vanquish UPLC system with a Thermo Hypersil Gold aQ C18 column (100 × 2.1 mm, 1.9 […], Thermo Fisher Scientific Inc.) coupled to a Q Exactive Plus mass spectrometer. Gradient elution was used in the chromatographic separations using water with 20 mM ammonium acetate (mobile phase A) and methanol (mobile phase B), with the following gradient program: 0.5–7 min, 30%–90% B; 7–8 min, 90% B; 8–9 min, 90%–30% B; and 9–10 min, 30% B. The first minute of each injection was diverted to waste to avoid introduction of excessive salts from incubation medium. Analysis was detected in negative ion mode. Samples were quantified against an external, matrix-matched calibration curve. Additional methodologic information is available in Table S2.
To perform SPE, a positive-pressure manifold was employed along with Oasis WAX µElution plates and Oasis HLB 30 mg plates (Waters, Milford, MA, USA) for PFAS and positive-control extraction, respectively. […] The sorbent was then washed with 1% formic acid and water. Samples were eluted in 2% ammonia in methanol for analysis. Similarly, HLB plates were conditioned with methanol and water before sample was loaded onto the sorbent. The wells were then washed with 5% methanol in water and water before elution in methanol. For samples not undergoing SPE, the supernatant of the crashed assay sample was diluted in mobile phase prior to analysis. The first 1.5 min of the run was diverted to waste to prevent salt contamination.

A short description of series [2]: IVIVE: steady-state concentration (Css), generic HTTK model. More on the design: species or system human. The following applies: for Css (mg/L) / Css (uM): Assuming 1 mg/kg/day dose rate, BW 70 kg; for CLhep: QL 1500000 uL/min; for Fub: fub=fup/(B:P), Fub set to 1 if needed; for CLint: scaled to whole liver: HPGL 110 mill cells/g, Vl 1596 g. Here is the method:
IVIVE was performed as previously described to calculate human steady-state concentrations (Css). Briefly, experimental plasma protein binding data presented elsewhere were transformed to fraction unbound in blood using blood-to-plasma partitioning values. Experimental Clint values generated here are used in conjunction with relevant liver scalars to scale up to estimate whole liver clearance. […] Once Css values were established, these were used with the PFAS-specific in vitro POD data to calculate the administered equivalent doses (AEDs) using reverse dosimetry. […] The fifth-percentile AC50 value was used to define the in vitro POD. All relevant inputs, scalars, and calculations are provided in Supplementary Information, as indicated in the results.

Consider `O=C(O)C(F)(F)C(F)(F)C(F)(F)C(F)(F)C(F)(F)C(F)(F)C(F)(F)C(F)(F)C(F)(F)C(F)(F)C(F)(F)C(F)(F)F` [Perfluorotridecanoic acid], for which the Mean fu in the series with plasma protein was 0.0433. Besides, in series [1], the “CLint for HTTK” value was 0, the “in vitro CLint exp assay” value stood at 0 and the “Unadj Clint” value is given as 0.00. In series [2], the “Css (mg/L)” value came to 5.57 mg/L, the “Css (uM)” value was 8.39 µM, the “CLhep” value was 0.000 L/h and the Fub was 0.07873. In addition, the “CLint” value in series [2] was determined as 0 µL/min.

For the molecule `NS(=O)(=O)C(F)(F)C(F)(F)C(F)(F)C(F)(F)C(F)(F)C(F)(F)F` [Perfluorohexanesulfonamide (PFHxSA)], the Mean fu with plasma protein was 0.0004. Also, in series [1], the “CLint for HTTK” value worked out at 0 and the “in vitro CLint exp assay” value is reported as 0. In series [2], the “Css (mg/L)” value came to 603.36 mg/L, the “Css (uM)” value came to 1512.33 µM, the “CLhep” value was 0.000 L/h and the Fub stood at 0.0007273. For the same molecule, in series [2], the “CLint” value is 0 µL/min.

With `O=S(=O)(O)C(F)(F)C(F)(F)C(F)(F)C(F)(F)C(F)(F)C(F)(F)F` [Perfluorohexanesulfonic acid (PFHxS)], the Mean fu in the series on plasma protein is 0.0009. For the same molecule, in series [1], the “CLint for HTTK” value turned out to be 0 and the “in vitro CLint exp assay” value came to 0. Moreover, in series [2], the “Css (mg/L)” value was 268.16 mg/L, the “Css (uM)” value is 670.49 µM, the “CLhep” value is listed as 0.000 L/h and the Fub came out at 0.001636. Further, the “CLint” value in series [2] is given as 0 µL/min.

Regarding `O=C(O)C(F)(F)C(F)(F)OC(F)(F)F`, in the series on plasma protein, the Mean fu was 0.0764. Further, in series [1], the “CLint for HTTK” value is 0 and the “in vitro CLint exp assay” value is given as 0. In addition, in series [2], the “Css (mg/L)” value is recorded as 3.16 mg/L, the “Css (uM)” value amounted to 13.74 µM, the “CLhep” value was 0.000 L/h and the Fub is on record as 0.1389. For the same molecule, the “CLint” value in series [2] came out at 0 µL/min.

Turning to `O=C(O)C(F)(F)C(F)(F)C(F)(F)C(F)(F)F` [PFPeA, Perfluoropentanoic acid], the “fup (fraction unbound in plasma)” value with plasma protein (human plasma) is reported as 0.0440. Further, the “Unadj Clint” value in series [1] was 2.13. In addition, in series [2] (human steady-state concentration, 1 mg/kg/day exposure rate, loss of parent compound only), the Css was found to be 20.78 µM.

Turning to `O=S(=O)(Cl)C(F)(F)C(F)(F)C(F)(F)C(F)(F)C(F)(F)C(F)(F)C(F)(F)C(F)(F)F`, the Mean fu with plasma protein is reported as 0.0109. Also, in series [1], the “CLint for HTTK” value was found to be 0 and the “in vitro CLint exp assay” value is listed as 0.00. In addition, in series [2], the “Css (mg/L)” value was determined as 41.78 mg/L, the “Css (uM)” value stood at 80.68 µM, the “CLhep” value is recorded as 0.000 L/h and the Fub was 0.0105. Also, the “CLint” value in series [2] is on record as 0 µL/min.

For `O=C(O)C(F)(F)C(F)(F)C(F)(F)C(F)(F)F` [Perfluoropentanoic acid (PFPeA)], the Mean fu with plasma protein is listed as 0.044. Also, in series [1], the “CLint for HTTK” value came to 0 and the “in vitro CLint exp assay” value is reported as 0. Besides, in series [2], the “Css (mg/L)” value turned out to be 5.49 mg/L, the “Css (uM)” value amounted to 20.78 µM, the “CLhep” value is 0.000 L/h and the Fub worked out at 0.08. Besides, the “CLint” value in series [2] was found to be 0 µL/min.

As for `O=S(=O)(O)C(F)(F)C(F)(F)C(F)(F)C(F)(F)C(F)(F)C(F)(F)C(F)(F)C(F)(F)F` [Perfluorooctanesulfonate (PFOS-)], in the series with plasma protein, the Mean fu is recorded as 0.0047. Further, in series [1], the “CLint for HTTK” value stood at 0 and the “in vitro CLint exp assay” value came to 0. In addition, in series [2], the “Css (mg/L)” value is 51.35 mg/L, the “Css (uM)” value is 102.71 µM, the “CLhep” value came to 0.000 L/h and the Fub is listed as 0.008545. Moreover, the “CLint” value in series [2] worked out at 0 µL/min.

Turning to `O=C(O)C(F)(F)C(F)(F)F` [Perfluoropropanoic acid (PFPrA)], the Mean fu in the series with plasma protein is recorded as 0.3108. Further, in series [1], the “CLint for HTTK” value is 0 and the “in vitro CLint exp assay” value is 0. In addition, in series [2], the “Css (mg/L)” value stood at 0.78 mg/L, the “Css (uM)” value turned out to be 4.74 µM, the “CLhep” value turned out to be 0.000 L/h and the Fub was found to be 0.5651. For the same molecule, the “CLint” value in series [2] is 0 µL/min.

For the molecule `O=C(O)CCC(F)(F)C(F)(F)C(F)(F)F`, in the series on plasma protein, the Mean fu is 0.0518. Also, in series [1], the “CLint for HTTK” value was determined as 0 and the “in vitro CLint exp assay” value came to 0. Also, in series [2], the “Css (mg/L)” value stood at 4.66 mg/L, the “Css (uM)” value is 19.25 µM, the “CLhep” value was 0.000 L/h and the Fub was found to be 0.09418. Moreover, the “CLint” value in series [2] worked out at 0 µL/min.

In the case of `O=S(=O)(O)C(F)(F)C(F)(F)C(F)(F)C(F)(F)C(F)(F)C(F)(F)C(F)(F)F` [Perfluoroheptanesulfonic acid (PFHpS)], the Mean fu with plasma protein is listed as 0.0006. Further, in series [1], the “CLint for HTTK” value is given as 0 and the “in vitro CLint exp assay” value came to 0. In series [2], the “Css (mg/L)” value turned out to be 402.24 mg/L, the “Css (uM)” value turned out to be 893.98 µM, the “CLhep” value is recorded as 0.000 L/h and the Fub came to 0.001091. The “CLint” value in series [2] was found to be 0 µL/min.

As to `CCNS(=O)(=O)C(F)(F)C(F)(F)C(F)(F)C(F)(F)C(F)(F)C(F)(F)C(F)(F)C(F)(F)F`, the Mean fu in the series on plasma protein is 0.0289. Also, in series [1], the “CLint for HTTK” value turned out to be 8.96 and the “in vitro CLint exp assay” value amounted to 8.96. In series [2], the “Css (mg/L)” value worked out at 0.58 mg/L, the “Css (uM)” value was found to be 1.10 µM, the “CLhep” value was determined as 4.700 L/h and the Fub worked out at 0.05255. In series [2], the “CLint” value worked out at 1573018 µL/min.

`CNS(=O)(=O)C(F)(F)C(F)(F)C(F)(F)C(F)(F)C(F)(F)C(F)(F)C(F)(F)C(F)(F)F`: in the series on plasma protein, the Mean fu is listed as 0.0117. In addition, in series [1], the “CLint for HTTK” value came to 23.23 and the “in vitro CLint exp assay” value was found to be 23.23. Further, in series [2], the “Css (mg/L)” value was found to be 0.58 mg/L, the “Css (uM)” value was 1.13 µM, the “CLhep” value is 4.921 L/h and the Fub was found to be 0.02127. In addition, in series [2], the “CLint” value came to 4078259 µL/min.

Regarding `O=C(Cl)C(F)(F)C(F)(F)C(F)(F)C(F)(F)C(F)(F)C(F)(F)C(F)(F)F`, the Mean fu with plasma protein is 0.0001. Further, in series [1], the “CLint for HTTK” value is 0 and the “in vitro CLint exp assay” value was determined as 0. In series [2], the “Css (mg/L)” value turned out to be 3584.17 mg/L, the “Css (uM)” value was determined as 8297.84 µM, the “CLhep” value is listed as 0.000 L/h and the Fub was determined as 0.0001224. The “CLint” value in series [2] is listed as 0 µL/min.

With `NS(=O)(=O)C(F)(F)C(F)(F)C(F)(F)C(F)(F)C(F)(F)C(F)(F)C(F)(F)C(F)(F)F` [Perfluorooctane sulfonamide (PFOSA)], the Mean fu in the series on plasma protein is recorded as 0.0039. Moreover, in series [1], the “CLint for HTTK” value is given as 17.84 and the “in vitro CLint exp assay” value stood at 17.84. Besides, in series [2], the “Css (mg/L)” value is reported as 2.16 mg/L, the “Css (uM)” value was 4.33 µM, the “CLhep” value came to 1.313 L/h and the Fub is reported as 0.007091. In addition, the “CLint” value in series [2] was found to be 3131990 µL/min.
